Measured values taken from US20250262279A1, “DOSE REGIMEN FOR LONG-ACTING GLP1/GLUCAGON RECEPTOR AGONISTS” (Boehringer Ingelheim International GmbH, priority 2021, published 2025).
Where two headings read alike, the source gives them in different places.

Test: Example 1: plasma pharmacokinetics
Format: in vivo
Settings: human, sc; for Cmax: read-out: Cmax (gMean)

In the case of `CC[C@H](C)[C@H](NC(=O)[C@H](Cc1ccccc1)NC(=O)[C@H](CC(=O)O)NC(=O)[C@H](CCCCN)NC(=O)[C@H](C)NC(=O)[C@H](C)NC(=O)[C@H](CCCNC(=N)N)NC(=O)[C@H](CCC(=O)O)NC(=O)[C@H](CC(=O)O)NC(=O)[C@H](CC(C)C)NC(=O)[C@H](Cc1ccc(O)cc1)NC(=O)[C@H](CCCCN)NC(=O)[C@H](CO)NC(=O)[C@H](Cc1ccc(O)cc1)NC(=O)[C@H](CC(=O)O)NC(=O)[C@H](CO)NC(=O)[C@@H](NC(=O)[C@H](Cc1ccccc1)NC(=O)[C@@H](NC(=O)CNC(=O)[C@H](CCC(N)=O)NC(=O)C1(NC(=O)[C@@H](N)Cc2c[nH]cn2)CCC1)[C@@H](C)O)[C@@H](C)O)C(=O)N[C@@H](CCCCNC(=O)CNC(=O)CNC(=O)[C@H](CO)NC(=O)CNC(=O)[C@H](CO)NC(=O)CNC(=O)CC[C@H](NC(=O)CCCCCCCCCCCCCCCCC(=O)O)C(=O)O)C(=O)N[C@@H](Cc1c[nH]c2ccccc12)C(=O)N[C@@H](CC(C)C)C(=O)N[C@@H](CCC(=O)O)C(=O)N[C@@H](CO)C(=O)N[C@@H](C)C(N)=O` [Compound I], the Cmax (1.2 mg, Ex.1 weekly scheme 1, wk 4, 1.2 mg sc) was 28.1 nM, the AUC(0-t) (1.2 mg, Ex.1 weekly scheme 2, wk 3, 1.2 mg sc, read-out: AUC0-168 (gMean)) was 3.56 µM·h and the Cmax (1.2 mg, Ex.1 weekly scheme 2, wk 3, 1.2 mg sc) was 31.7 nM. The AUC(0-t) (1.2 mg, Ex.1 weekly scheme 3, wk 3, 1.2 mg sc, read-out: AUC0-168 (gMean)) was 3.23 µM·h, the Cmax (1.2 mg, Ex.1 weekly scheme 3, wk 3, 1.2 mg sc) was 28.1 nM and the AUC(0-t) (1.2 mg, Ex.1 weekly scheme 4, wk 5, 1.2 mg sc, read-out: AUC0-168 (gMean)) was 3.94 µM·h. The Cmax (1.2 mg, Ex.1 weekly scheme 4, wk 5, 1.2 mg sc) was 36 nM, the AUC(0-t) (1.2 mg, Ex.1 weekly scheme 4, wk 6, 1.2 mg sc, read-out: AUC0-168 (gMean)) was 4.7 µM·h and the Cmax (1.2 mg, Ex.1 weekly scheme 4, wk 6, 1.2 mg sc) was 41.9 nM. It also gave an AUC(0-t) (1.2 mg, Ex.1 weekly scheme 4, wk 7, 1.2 mg sc, read-out: AUC0-168 (gMean)) of 5.19 µM·h, a Cmax (1.2 mg, Ex.1 weekly scheme 4, wk 7, 1.2 mg sc) of 49 nM and an AUC(0-t) (1.2 mg, Ex.1 weekly scheme 5, wk 3, 1.2 mg sc, read-out: AUC0-168 (gMean)) of 3.79 µM·h. For the same molecule, the Cmax (1.2 mg, Ex.1 weekly scheme 5, wk 3, 1.2 mg sc) was 31.5 nM, the AUC(0-t) (1.5 mg, Ex.1 twice weekly scheme, wk 9, 1.5 mg sc, read-out: AUC0-72 (gMean)) was 5 µM·h and the Cmax (1.5 mg, Ex.1 twice weekly scheme, wk 9, 1.5 mg sc) was 78.3 nM. For the same molecule, the AUC(0-t) (1.5 mg, Ex.1 weekly scheme 1, wk 5, 1.5 mg sc, read-out: AUC0-168 (gMean)) was 4.49 µM·h, the Cmax (1.5 mg, Ex.1 weekly scheme 1, wk 5, 1.5 mg sc) was 37.8 nM and the AUC(0-t) (1.6 mg, Ex.1 weekly scheme 2, wk 4, 1.6 mg sc, read-out: AUC0-168 (gMean)) was 5.13 µM·h. The Cmax (1.6 mg, Ex.1 weekly scheme 2, wk 4, 1.6 mg sc) was 44.3 nM, the AUC(0-t) (1.8 mg, Ex.1 twice weekly scheme, wk 11, 1.8 mg sc, read-out: AUC0-72 (gMean)) was 5.69 µM·h and the Cmax (1.8 mg, Ex.1 twice weekly scheme, wk 11, 1.8 mg sc) was 93.6 nM. It also gave an AUC(0-t) (1.8 mg, Ex.1 weekly scheme 1, wk 6, 1.8 mg sc, read-out: AUC0-168 (gMean)) of 5.53 µM·h, a Cmax (1.8 mg, Ex.1 weekly scheme 1, wk 6, 1.8 mg sc) of 45.5 nM and an AUC(0-t) (1.8 mg, Ex.1 weekly scheme 3, wk 4, 1.8 mg sc, read-out: AUC0-168 (gMean)) of 5.2 µM·h. The Cmax (1.8 mg, Ex.1 weekly scheme 3, wk 4, 1.8 mg sc) was 46.5 nM, the AUC(0-t) (1.8 mg, Ex.1 weekly scheme 4, wk 11, 1.8 mg sc, read-out: AUC0-168 (gMean)) was 8.16 µM·h and the Cmax (1.8 mg, Ex.1 weekly scheme 4, wk 11, 1.8 mg sc) was 69.9 nM. The AUC(0-t) (1.8 mg, Ex.1 weekly scheme 4, wk 19, 1.8 mg sc, read-out: AUC0-168 (gMean)) was 6.66 µM·h, the Cmax (1.8 mg, Ex.1 weekly scheme 4, wk 19, 1.8 mg sc) was 60.2 nM and the AUC(0-t) (1.8 mg, Ex.1 weekly scheme 5, wk 5, 1.8 mg sc, read-out: AUC0-168 (gMean)) was 6.08 µM·h. The Cmax (1.8 mg, Ex.1 weekly scheme 5, wk 5, 1.8 mg sc) was 57.9 nM, the AUC(0-t) (1.8 mg, Ex.1 weekly scheme 5, wk 6, 1.8 mg sc, read-out: AUC0-168 (gMean)) was 6.77 µM·h and the Cmax (1.8 mg, Ex.1 weekly scheme 5, wk 6, 1.8 mg sc) was 63.3 nM. For the same molecule, the AUC(0-t) (2 mg, Ex.1 weekly scheme 2, wk 5, 2.0 mg sc, read-out: AUC0-168 (gMean)) was 6.55 µM·h, the Cmax (2 mg, Ex.1 weekly scheme 2, wk 5, 2.0 mg sc) was 57.7 nM and the AUC(0-t) (2.1 mg, Ex.1 twice weekly scheme, wk 13, 2.1 mg sc, read-out: AUC0-72 (gMean)) was 6.7 µM·h. The Cmax (2.1 mg, Ex.1 twice weekly scheme, wk 13, 2.1 mg sc) was 108 nM, the AUC(0-t) (2.4 mg, Ex.1 twice weekly scheme, wk 15, 2.4 mg sc, read-out: AUC0-72 (gMean)) was 7.62 µM·h and the Cmax (2.4 mg, Ex.1 twice weekly scheme, wk 15, 2.4 mg sc) was 132 nM. It also gave an AUC(0-t) (2.4 mg, Ex.1 twice weekly scheme, wk 16, 2.4 mg sc, read-out: AUC0-72 (gMean)) of 8.55 µM·h, a Cmax (2.4 mg, Ex.1 twice weekly scheme, wk 16, 2.4 mg sc) of 142 nM and an AUC(0-t) (2.4 mg, Ex.1 weekly scheme 2, wk 6, 2.4 mg sc, read-out: AUC0-168 (gMean)) of 8.19 µM·h. The Cmax (2.4 mg, Ex.1 weekly scheme 2, wk 6, 2.4 mg sc) was 70.6 nM, the AUC(0-t) (2.4 mg, Ex.1 weekly scheme 3, wk 5, 2.4 mg sc, read-out: AUC0-168 (gMean)) was 7.19 µM·h and the Cmax (2.4 mg, Ex.1 weekly scheme 3, wk 5, 2.4 mg sc) was 63 nM. It also gave an AUC(0-t) (2.4 mg, Ex.1 weekly scheme 4, wk 13, 2.4 mg sc, read-out: AUC0-168 (gMean)) of 10.3 µM·h, a Cmax (2.4 mg, Ex.1 weekly scheme 4, wk 13, 2.4 mg sc) of 88.3 nM and an AUC(0-t) (2.4 mg, Ex.1 weekly scheme 4, wk 15, 2.4 mg sc, read-out: AUC0-168 (gMean)) of 10.9 µM·h. The Cmax (2.4 mg, Ex.1 weekly scheme 4, wk 15, 2.4 mg sc) was 87.1 nM, the AUC(0-t) (2.4 mg, Ex.1 weekly scheme 4, wk 16, 2.4 mg sc, read-out: AUC0-168 (gMean)) was 11.5 µM·h and the Cmax (2.4 mg, Ex.1 weekly scheme 4, wk 16, 2.4 mg sc) was 97.3 nM. The AUC(0-t) (2.4 mg, Ex.1 weekly scheme 5, wk 7, 2.4 mg sc, read-out: AUC0-168 (gMean)) was 9.08 µM·h, the Cmax (2.4 mg, Ex.1 weekly scheme 5, wk 7, 2.4 mg sc) was 77.8 nM and the AUC(0-t) (3 mg, Ex.1 weekly scheme 3, wk 6, 3.0 mg sc, read-out: AUC0-168 (gMean)) was 10.4 µM·h. The Cmax (3 mg, Ex.1 weekly scheme 3, wk 6, 3.0 mg sc) was 88.7 nM, the AUC(0-t) (3 mg, Ex.1 weekly scheme 5, wk 9, 3.0 mg sc, read-out: AUC0-168 (gMean)) was 11.3 µM·h and the Cmax (3 mg, Ex.1 weekly scheme 5, wk 9, 3.0 mg sc) was 102 nM. The AUC(0-t) (3.6 mg, Ex.1 weekly scheme 5, wk 11, 3.6 mg sc, read-out: AUC0-168 (gMean)) was 14.2 µM·h, the Cmax (3.6 mg, Ex.1 weekly scheme 5, wk 11, 3.6 mg sc) was 129 nM and the AUC(0-t) (4.2 mg, Ex.1 weekly scheme 5, wk 13, 4.2 mg sc, read-out: AUC0-168 (gMean)) was 15.9 µM·h. It also gave a Cmax (4.2 mg, Ex.1 weekly scheme 5, wk 13, 4.2 mg sc) of 134 nM, an AUC(0-t) (4.8 mg, Ex.1 weekly scheme 5, wk 15, 4.8 mg sc, read-out: AUC0-168 (gMean)) of 18.7 µM·h and a Cmax (4.8 mg, Ex.1 weekly scheme 5, wk 15, 4.8 mg sc) of 161 nM. For the same molecule, the AUC(0-t) (4.8 mg, Ex.1 weekly scheme 5, wk 16, 4.8 mg sc, read-out: AUC0-168 (gMean)) was 19.7 µM·h and the Cmax (4.8 mg, Ex.1 weekly scheme 5, wk 16, 4.8 mg sc) was 193 nM.
